Legend:
[1] = molecular target: T1, endogenous ATX/lysoPLD activity in whole blood (Mus musculus, UniProt Q9R1E6); assay: Inhibition of ATX activity in whole blood ex vivo (TOOS assay); type: biochemical; conditions: 2 h 37°C, TOOS with 1 mM LPC
T1 construct: from tissue; host or cells: mouse plasma / whole blood
Procedure: ATX/LysoPLD activity was assessed based on the amount of choline released from LPC with the use of TOOS (N-ethyl-N-(2-hydoroxy-3-sulfopropyl)-3-methylaniline) reagent. In this assay ATX-mediated LPC-liberated choline is oxidised by choline oxidase to betaine and hydrogen peroxide (H2O2). The latter in the presence of horseradish peroxidase reacts with TOOS and 4-aminoantipyrene (4-AAP) to form a pink quinoneimine dye measured at 555 nm. […]
The liberated choline was detected by adding 100 μl of a color mix containing 4-AAP and TOOS (0.3 mM), horseradish peroxidase (5.3 UnitmL^−1) and choline oxidase (2 UnitmL^−1). Absorbance was measured at 555 nm and data were analyzed using the statistical software package Prism 4.0 (Graphpad Software Inc, La Jolla, CA, USA). For each sample and control the absorbance was plotted against time and the slope (da/min) for the linear (steady-state) portion of each reaction profile was calculated. Absorbance units were converted to nmol of choline/min/ml by comparison with a choline standard curve or by use of the extinction coefficient for the quinoneimine dye according to the following equation: [drawing 1] […]
Venous blood from wild type mouse was collected in EDTA tubes. […] IC50 values using ATX activity and LPA levels were determined graphically as described above.

LPA1 = conditions: Ca++ mobilization, RH7777 cells; kind of constant not given; read-out: inhibition of LPA1; cited from earlier work
[2] = tested on: transformed NIH3T3 cells expressing ras and ATX; set-up: method as in PMID 18454946; conditions: cited from earlier work
recombinant ATX = molecular target: T2, recombinant ATX (Homo sapiens, UniProt Q13822); assay: TOOS activity assay, LPC hydrolysis by recombinant ATX; type: biochemical; conditions: for Vmax of ATX in presence of BrP-LPA: 16:0 LPC 100–400 μΜ, mean(std); for % Inhibition at 10 μΜ: BrP-LPA 10 μΜ; for IC50: [S] 50 μΜ, 2 nM ATX
T2 construct: purchased SinoBiological Inc (main data); R&D (additional Km values)
Procedure: ATX/LysoPLD activity was assessed based on the amount of choline released from LPC with the use of TOOS (N-ethyl-N-(2-hydoroxy-3-sulfopropyl)-3-methylaniline) reagent. In this assay ATX-mediated LPC-liberated choline is oxidised by choline oxidase to betaine and hydrogen peroxide (H2O2). The latter in the presence of horseradish peroxidase reacts with TOOS and 4-aminoantipyrene (4-AAP) to form a pink quinoneimine dye measured at 555 nm.
Diluted plasma samples (100 fold dilution; final EDTA concentration 0.5 mM) or recombinant ATX protein (2 nM) were incubated with LPC in the presence of 100 mmol/l Tris–HCl/pH 9.0, 500 mmol/l NaCl, 5 mmol/l MgCl2, 5 mmol/l CaCl2, 60 μM CoCl2 and 0.05% Triton X-100 for 3 h at 37°C at a final volume of 100 μl. It should be noted that EDTA was used not only as an anticoagulant but also as an inhibitor of ATX activity ex vivo [46], in order to suppress artificial LPA production during blood withdrawal and plasma preparation; this is because the same samples were used in phospholipid measurements.
The liberated choline was detected by adding 100 μl of a color mix containing 4-AAP and TOOS (0.3 mM), horseradish peroxidase (5.3 UnitmL^−1) and choline oxidase (2 UnitmL^−1). Absorbance was measured at 555 nm and data were analyzed using the statistical software package Prism 4.0 (Graphpad Software Inc, La Jolla, CA, USA). For each sample and control the absorbance was plotted against time and the slope (da/min) for the linear (steady-state) portion of each reaction profile was calculated. Absorbance units were converted to nmol of choline/min/ml by comparison with a choline standard curve or by use of the extinction coefficient for the quinoneimine dye according to the following equation: [drawing 1] Where Vt* is the total volume of reaction in ml (0.2 ml); Vs* is the volume of sample in ml; e is the millimolar extinction coefficient of quinoneimine dye under the assay conditions (e = e = […]); and 1/2: Factor based on the fact that 1 mol of hydrogen peroxide produces 1/2 mol of quinoneimine dye.
The biochemistry of lyso-PLD was assessed by following the kinetics data using a wide panel of different ATX substrates [FS-3, different LPC species (14:0, 16:0, 18:0, 18:1)], three different recombinant ATX proteins (R&D, Sino-Biological and Echelon) and three different ATX activity assays (FS-3, TOOS, Amplex Red). The ATX activity was measured at different substrate concentrations (typically from 1-1000 μM) in order to examine whether ATX follows Michaelis-Menten kinetics. The Michaelis constant (Km) was obtained by fitting the substrate dependence of V (ATX activity) to a rectangular hyperbola using the non-linear regression analysis of the statistical software package Prism 4.0 (GraphPad Software, Inc.). Km and Vmax were evaluated from the rectangular hyperbola curve with the use of GraphPad software.
For in vitro inhibition measurements, BrP-LPA was dissolved in water as a stock solution (4 mM) and appropriate dilutions were made in water. The inhibition of ATX by BrP-LPA was measured employing 2 nM recombinant ATX, 50 μΜ LPC (14:0, 16:0, 18:0) and 0.01 to 100 μmol/L of BrP-LPA (final concentrations). The in vitro inhibition of ATX by BrP-LPA was evaluated with three different assays (FS-3, Amplex Red, and TOOS). […] BrP-LPA was also tested for its ability to inhibit mouse plasma ATX activity. Diluted mouse plasma was used as the source of ATX and the analysis of inhibition was made with TOOS as the in vitro inhibition assay.
The inhibition model (competitive, noncompetitive, or mixed type inhibition) was evaluated by graphical analysis with Lineweaver–Burk double reciprocal plots (1/[velocity] versus 1/[substrate]) and Cornish-Bowden plot ([substrate]/[velocity] versus [Inhibitor]). These plots were generated by the measurement of ATX activity in the presence of different BrP-LPA concentrations (0–10 μΜ) and increased amounts of 16:0 LPC (100, 200, 400 μΜ). […]

MDA-MB-231 = tested on: MDA-MB-231; set-up: method as in PMID 19509223; conditions: MDA-MB-231, in vitro; cited from earlier work

IC50 [1]: 600 nM | mode of inhibition of ATX lysoPLD activity (recombinant ATX; 16:0 LPC as substrate, Cornish-Bowden and Lineweaver-Burk plots): competitive | Vmax of ATX in presence of BrP-LPA (recombinant ATX; BrP-LPA 1 μM): 51(3) nmole/min/ml | Vmax of ATX in presence of BrP-LPA (recombinant ATX; BrP-LPA 3 μM): 71(4) nmole/min/ml | Vmax of ATX in presence of BrP-LPA (recombinant ATX; BrP-LPA 10 μM): 54(13) nmole/min/ml | % Inhibition at 10 μΜ (recombinant ATX; TOOS, 16:0 LPC 50 μΜ): 80% | % Inhibition at 10 μΜ (recombinant ATX; TOOS, 18:0 LPC 50 μΜ): 70% | Ki (recombinant ATX; TOOS, 18:0 LPC, Cheng-Prusoff from IC50): 600 ± 110 nM | IC50 (recombinant ATX; TOOS, substrate 16:0 LPC, mean±std of two experiments): 700 ± 200 nM | IC50 (recombinant ATX; TOOS, substrate 18:0 LPC, mean±std): 900 ± 100 nM
SMILES: CCCCCCCCCCCCCCCC(=O)OC[C@@H](O)CC(Br)P(=O)(O)O (stereo partly drawn) [BrP-LPA, 1-bromo-3(S)-hydroxy-4-(palmitoyloxy)butyl-phosphonate]
IC50 (LPA1): 1500 nM | decrease of chemotaxis [2]: 23% | breast cancer cell migration (MDA-MB-231): reduce breast cancer cell (MDA-MB-231) migration in vitro
